This passage reports ratio and IC50 results from ChEMBL document CHEMBL6153147 (J Med Chem, 2025).

The nature of assay [1]: Selectivity ratio of IC50 for inhibition of human PLK2 using ATF2 as substrate to IC50 for inhibition of human PLK1 using ATF2 as substrate.
In assay [2] the target is Serine/threonine-protein kinase PLK3 (Homo sapiens, UniProt Q9H4B4). Nature of the assay: Inhibition of human PLK3 using ATF2 as substrate incubated for 40 mins in presence of [gamma-33P]ATP/Mg acetate by scintillation counting analysis.
Chain of Serine/threonine-protein kinase PLK3 (Q9H4B4 whole entry): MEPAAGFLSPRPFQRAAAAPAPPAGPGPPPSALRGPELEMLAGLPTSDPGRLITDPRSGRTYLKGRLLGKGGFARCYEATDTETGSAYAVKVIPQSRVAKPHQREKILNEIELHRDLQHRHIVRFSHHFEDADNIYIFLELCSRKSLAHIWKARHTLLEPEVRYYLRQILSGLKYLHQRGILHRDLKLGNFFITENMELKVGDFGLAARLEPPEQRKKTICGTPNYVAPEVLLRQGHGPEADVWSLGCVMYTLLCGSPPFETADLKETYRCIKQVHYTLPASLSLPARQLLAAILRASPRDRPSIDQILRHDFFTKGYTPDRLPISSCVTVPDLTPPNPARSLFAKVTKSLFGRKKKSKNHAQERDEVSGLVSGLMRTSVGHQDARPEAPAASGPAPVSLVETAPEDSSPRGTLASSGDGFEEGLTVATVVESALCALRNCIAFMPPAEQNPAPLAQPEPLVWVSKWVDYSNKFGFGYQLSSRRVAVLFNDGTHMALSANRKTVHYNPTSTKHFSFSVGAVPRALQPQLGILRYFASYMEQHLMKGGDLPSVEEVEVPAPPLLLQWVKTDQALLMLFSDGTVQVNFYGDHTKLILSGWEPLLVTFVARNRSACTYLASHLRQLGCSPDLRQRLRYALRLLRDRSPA
A short description of assay [3]: Selectivity ratio of IC50 for inhibition of human PLK3 using ATF2 as substrate to IC50 for inhibition of human PLK1 using ATF2 as substrate.
Assay [4] has as its target Serine/threonine-protein kinase PLK2 (Homo sapiens, UniProt Q9NYY3). The assay can be described thus: Inhibition of human PLK2 using ATF2 as substrate incubated for 40 mins in presence of [gamma-33P]ATP/Mg acetate by scintillation counting analysis.
In assay [5] the target is Serine/threonine-protein kinase PLK1 (Homo sapiens, UniProt P53350). The assay can be described thus: Inhibition of human PLK1 using ATF2 as substrate incubated for 40 mins in presence of [gamma-33P]ATP/Mg acetate by scintillation counting analysis.
Chain of Serine/threonine-protein kinase PLK1 (P53350 whole entry): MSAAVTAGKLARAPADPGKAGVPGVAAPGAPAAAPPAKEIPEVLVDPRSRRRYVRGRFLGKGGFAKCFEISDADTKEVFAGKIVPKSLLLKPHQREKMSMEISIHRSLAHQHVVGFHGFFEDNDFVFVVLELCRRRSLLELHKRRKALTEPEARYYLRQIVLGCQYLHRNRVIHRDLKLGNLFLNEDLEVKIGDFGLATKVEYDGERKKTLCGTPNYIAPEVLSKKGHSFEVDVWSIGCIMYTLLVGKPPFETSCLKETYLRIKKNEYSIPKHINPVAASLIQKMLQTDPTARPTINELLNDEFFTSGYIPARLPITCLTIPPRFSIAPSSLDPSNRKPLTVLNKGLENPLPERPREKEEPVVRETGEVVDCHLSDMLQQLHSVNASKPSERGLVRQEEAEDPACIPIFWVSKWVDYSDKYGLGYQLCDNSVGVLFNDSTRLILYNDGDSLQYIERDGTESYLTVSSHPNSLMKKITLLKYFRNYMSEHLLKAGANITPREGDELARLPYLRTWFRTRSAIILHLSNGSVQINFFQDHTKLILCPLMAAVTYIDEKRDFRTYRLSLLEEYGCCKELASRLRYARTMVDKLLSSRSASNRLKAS

Molecules are shown by their SMILES.

Chain of Serine/threonine-protein kinase PLK2 (Q9NYY3 whole entry): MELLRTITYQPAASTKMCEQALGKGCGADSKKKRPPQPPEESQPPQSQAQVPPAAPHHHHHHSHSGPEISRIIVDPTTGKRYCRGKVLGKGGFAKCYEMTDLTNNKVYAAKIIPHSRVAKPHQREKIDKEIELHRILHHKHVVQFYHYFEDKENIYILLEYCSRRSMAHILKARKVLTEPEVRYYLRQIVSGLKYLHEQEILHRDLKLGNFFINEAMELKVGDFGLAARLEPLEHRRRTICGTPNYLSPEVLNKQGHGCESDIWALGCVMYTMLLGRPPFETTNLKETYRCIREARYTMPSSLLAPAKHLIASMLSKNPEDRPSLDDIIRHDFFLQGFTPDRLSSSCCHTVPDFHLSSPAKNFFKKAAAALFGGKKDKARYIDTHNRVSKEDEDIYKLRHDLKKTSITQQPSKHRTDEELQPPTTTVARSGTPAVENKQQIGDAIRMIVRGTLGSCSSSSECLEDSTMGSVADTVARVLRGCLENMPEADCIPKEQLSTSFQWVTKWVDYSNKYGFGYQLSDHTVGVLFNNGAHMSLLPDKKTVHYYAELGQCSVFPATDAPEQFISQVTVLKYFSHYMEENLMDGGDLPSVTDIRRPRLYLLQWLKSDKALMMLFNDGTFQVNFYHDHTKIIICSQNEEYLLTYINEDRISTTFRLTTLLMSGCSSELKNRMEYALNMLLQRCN

On to `CC[C@@H]1C(=O)N(C)c2cnc(Nc3cc(N4CCC(N)CC4)ccc3OCCCO)nc2N1C1CCCC1`, for which the ratio in assay [1] is > 319; in assay [3] it was 192. Besides, the figures for the IC50 in assay [2], in assay [4] and in assay [5] were 6010 nM, > 10000 nM and 31 nM, respectively.

Consider `CC[C@@H]1C(=O)N(C)c2cnc(Nc3cc(N4CCN(C)CC4)ccc3OC)nc2N1C1CCCC1`, for which the ratio was 12 in assay [1] and 30 in assay [3]. Moreover, the IC50 was found to be 635 nM in assay [2], 255 nM in assay [4] and 21 nM in assay [5].

`CC[C@@H]1C(=O)N(C)c2cnc(Nc3cc(N4CCN(C)CC4)ccc3OCCCO)nc2N1C(C)C`: the ratio in assay [1] and in assay [3] was > 300 in each case. In addition, the IC50 is > 10000 nM in assay [2], > 10000 nM in assay [4] and 22 nM in assay [5].

On to `CC[C@@H]1C(=O)N(C)c2cnc(Nc3cc(N4CCN(C(=O)OC(C)(C)C)CC4)ccc3OCCO)nc2N1C1CCCC1`, for which the ratio in assay [1] and in assay [3] was > 73 each time. Also, the IC50 in assay [2] is > 10000 nM; in assay [4] it was > 10000 nM; in assay [5] it was 138 nM.

On to `CC[C@@H]1C(=O)N(C)c2cnc(Nc3cc(N4CCN(CC)CC4)ccc3OCCCO)nc2N1C1CCCC1`, for which the figures for the ratio in assay [1] and in assay [3] were > 357 and 175, respectively. Besides, the IC50 was 4910 nM in assay [2], > 10000 nM in assay [4] and 26 nM in assay [5].

For `CC[C@@H]1C(=O)N(C)c2cnc(Nc3cc(N4CCNCC4)ccc3OCCCO)nc2N1C(C)C`, the ratio in assay [1] and in assay [3] was > 250 in each case. The IC50 is > 10000 nM in assay [2], > 10000 nM in assay [4] and 40 nM in assay [5].

In the case of `CC[C@@H]1C(=O)N(C)c2cnc(Nc3cc(N4CCN(C)CC4)cc(Cl)c3OC)nc2N1C1CCCC1`, the results for the ratio in assay [1] and in assay [3] were 27 and 64, respectively. Besides, the IC50 in assay [2] amounted to 778 nM; in assay [4], 325 nM; in assay [5] it was 12 nM.

As for `CC[C@@H]1C(=O)N(C)c2cnc(Nc3cc(N4CCN(CC)CC4)ccc3OCCO)nc2N1C(C)C`, the ratio in assay [1] and in assay [3] was > 135 throughout. Also, the IC50 is > 10000 nM in assay [2], > 10000 nM in assay [4] and 74 nM in assay [5].

As to `CC[C@@H]1C(=O)N(C)c2cnc(Nc3cc(N4CCN(C)CC4)cc(Cl)c3OCCO)nc2N1C1CCCC1`, the ratio in assay [1] was determined as 764; in assay [3] it was 576. In addition, the IC50 in assay [2] is 5760 nM; in assay [4], 7850 nM; in assay [5], 11 nM.

As for `CC[C@@H]1C(=O)N(C)c2cnc(Nc3cc(N4CCC(NC(=O)OC(C)(C)C)CC4)ccc3OCCO)nc2N1C1CCCC1`, the ratio in assay [1] and in assay [3] was > 67.1 each time. The IC50 in assay [2] was > 10000 nM; in assay [4], > 10000 nM; in assay [5] it was 149 nM.

`CC[C@@H]1C(=O)N(C)c2cnc(Nc3cc(N4CCN(CC)CC4)cc(F)c3OC)nc2N1C1CCCC1`: the results for the ratio in assay [1] and in assay [3] were 51 and 107, respectively. In addition, the IC50 in assay [2] was 1290 nM; in assay [4] it was 610 nM; in assay [5] it was 12 nM.

As for `CC[C@@H]1C(=O)N(C)c2cnc(Nc3cc(N4CCC(N)CC4)ccc3OC)nc2N1C1CCCC1`, the ratio is 17 in assay [1] and 32 in assay [3]. In addition, the IC50 in assay [2] is 926 nM; in assay [4] it was 505 nM; in assay [5], 29 nM.

Take `CC[C@@H]1C(=O)N(C)c2cnc(Nc3cc(N4CCC(NC(=O)OC(C)(C)C)CC4)ccc3OC)nc2N1C1CCCC1`: the ratio in assay [1] is 22; in assay [3] it was 43. Besides, the IC50 was found to be 6450 nM in assay [2], 3370 nM in assay [4] and 152 nM in assay [5].

For the compound `CC[C@@H]1C(=O)N(C)c2cnc(Nc3cc(N4CCN(C)CC4)cc(F)c3OC)nc2N1C(C)C`, the ratio in assay [1] is 412; in assay [3], 322. Further, the IC50 was found to be 5160 nM in assay [2], 6600 nM in assay [4] and 16 nM in assay [5].

For `CC[C@@H]1C(=O)N(C)c2cnc(Nc3cc(N4CCN(C)CC4)ccc3OCCO)nc2N1C(C)C`, the ratio in assay [1] and in assay [3] was > 303 each time. Further, the IC50 in assay [2] was > 10000 nM; in assay [4], > 10000 nM; in assay [5], 33 nM.

Take `CC[C@@H]1C(=O)N(C)c2cnc(Nc3cc(N4CCNCC4)ccc3OCCO)nc2N1C1CCCC1`: the ratio in assay [1] was > 256; in assay [3] it was 150. Moreover, the values for the half-maximal inhibitory concentration (IC50) in assay [2], in assay [4] and in assay [5] were 5830 nM, > 10100 nM and 39 nM, respectively.

As for `CC[C@@H]1C(=O)N(C)c2cnc(Nc3cc(N4CCN(C)CC4)cc(Cl)c3OCCO)nc2N1C(C)C`, the ratio in assay [1] and in assay [3] was > 208 throughout. For the same compound, the IC50 is > 10000 nM in assay [2], > 10000 nM in assay [4] and 48 nM in assay [5].

For `CC[C@@H]1C(=O)N(C)c2cnc(Nc3cc(N(C)CCN(C)C)cc(F)c3OCCCO)nc2N1C1CCCC1`, the figures for the ratio in assay [1] and in assay [3] were 292 and 72, respectively. Also, the figures for the 50% inhibitory concentration (IC50) in assay [2], in assay [4] and in assay [5] were 1460 nM, 5870 nM and 20 nM, respectively.

With `CC[C@@H]1C(=O)N(C)c2cnc(Nc3cc(N4CCN(C)CC4)cc(Cl)c3OCCCO)nc2N1C(C)C`, the ratio in assay [1] and in assay [3] was > 333 in each case. Further, the IC50 in assay [2] was > 10000 nM; in assay [4] it was > 10000 nM; in assay [5] it was 20 nM.

Regarding `CC[C@@H]1C(=O)N(C)c2cnc(Nc3cc(N4CCN(C(=O)OC(C)(C)C)CC4)ccc3OCCCO)nc2N1C1CCCC1`, the ratio in assay [1] and in assay [3] was > 51 in each case. The IC50 in assay [2] was > 10000 nM; in assay [4], > 10000 nM; in assay [5], 195 nM.

With `CC[C@@H]1C(=O)N(C)c2cnc(Nc3cc(N4CCN(C)CC4)ccc3OCCO)nc2N1C1CCCC1`, the ratio in assay [1] is > 450; in assay [3], 245. Further, the IC50 in assay [2] is 5670 nM; in assay [4], > 10100 nM; in assay [5], 27 nM.

As for `CC[C@@H]1C(=O)N(C)c2cnc(Nc3cc(N4CCC(NC(=O)OC(C)(C)C)CC4)ccc3OCCCO)nc2N1C1CCCC1`, the ratio in assay [1] and in assay [3] was > 104 throughout. Also, the IC50 in assay [2] is > 10000 nM; in assay [4], > 10000 nM; in assay [5], 97 nM.

For `CC[C@@H]1C(=O)N(C)c2cnc(Nc3cc(N4CCN(C)CC4)cc(F)c3OCCCO)nc2N1C1CCNC1` (some centres not stated), the IC50 in assay [5] is 7460 nM.

For the compound `CC[C@@H]1C(=O)N(C)c2cnc(Nc3cc(N4CCN(C)CC4)cc(F)c3OC[C@H](C)O)nc2N1C(C)C`, the ratio in assay [1] and in assay [3] was > 71 in each case. In addition, the IC50 in assay [2] was > 10000 nM; in assay [4], > 10000 nM; in assay [5] it was 141 nM.

As to `CC[C@@H]1C(=O)N(C)c2cnc(Nc3cc(N4CCN(C)CC4)cc(Cl)c3OCCO)nc2N1C1CCNC1` (some centres not stated), in assay [5], the IC50 amounted to 9250 nM.

For `CC[C@@H]1C(=O)N(C)c2cnc(Nc3cc(N4CCN(CC)CC4)ccc3OCCO)nc2N1C1CCCC1`, the ratio is > 370 in assay [1] and 258 in assay [3]. The IC50 is 6980 nM in assay [2], > 10000 nM in assay [4] and 27 nM in assay [5].

On to `CC[C@@H]1C(=O)N(C)c2cnc(Nc3cc(N4CCNCC4)ccc3OCCO)nc2N1C(C)C`, for which the ratio in assay [1] and in assay [3] was > 99 throughout. Further, the IC50 was > 10000 nM in assay [2], > 10000 nM in assay [4] and 101 nM in assay [5].

As for `CC[C@@H]1C(=O)N(C)c2cnc(Nc3cc(N4CCN(C)CC4)cc(F)c3OC)nc2N1C1CCCC1`, the values for the ratio in assay [1] and in assay [3] were 42 and 108, respectively. Besides, the half-inhibitory concentration (IC50) in assay [2] was found to be 1180 nM; in assay [4], 459 nM; in assay [5] it was 11 nM.

Take `CC[C@@H]1C(=O)N(C)c2cnc(Nc3cc(N4CCN(C)CC4)cc(Cl)c3OC)nc2N1C(C)C`: the ratio was 314 in assay [1] and 221 in assay [3]. For the same compound, the IC50 worked out at 3990 nM in assay [2], 5560 nM in assay [4] and 18 nM in assay [5].

Consider `CC[C@@H]1C(=O)N(C)c2cnc(Nc3cc(N4CCNCC4)ccc3OCCCO)nc2N1C1CCCC1`, for which the values for the ratio in assay [1] and in assay [3] were > 435 and 225, respectively. Further, the figures for the IC50 in assay [2], in assay [4] and in assay [5] were 5570 nM, > 10000 nM and 23 nM, respectively.

Turning to `CC[C@@H]1C(=O)N(C)c2cnc(Nc3cc(N(C)CCN(C)C)cc(F)c3OC)nc2N1C1CCCC1`, the ratio in assay [1] came out at 32; in assay [3], 48. Besides, the IC50 was determined as 625 nM in assay [2], 422 nM in assay [4] and 13 nM in assay [5].

On to `CC[C@@H]1C(=O)N(C)c2cnc(Nc3cc(N4CCN(CC)CC4)cc(F)c3OCCO)nc2N1C1CCCC1`, for which the ratio in assay [1] and in assay [3] was > 500 in each case. For the same compound, the 50% inhibitory concentration (IC50) in assay [2] is > 10000 nM; in assay [4], > 10000 nM; in assay [5], 20 nM.

With `CC[C@@H]1C(=O)N(C)c2cnc(Nc3cc(N4CCC(N)CC4)ccc3OCCO)nc2N1C1CCCC1`, the ratio in assay [1] and in assay [3] was > 292 each time. For the same compound, the results for the IC50 in assay [2], in assay [4] and in assay [5] were > 10000 nM, > 10000 nM and 34 nM, respectively.

On to `CC[C@@H]1C(=O)N(C)c2cnc(Nc3cc(N4CCN(C)CC4)cc(F)c3OCCO)nc2N1C(C)C`, for which the ratio in assay [1] and in assay [3] was > 330 throughout. The IC50 in assay [2] is > 10000 nM; in assay [4], > 10000 nM; in assay [5] it was 30 nM.

One may read the IC50 as the concentration that inhibits the measured activity by half.
